Data reported in patent US20130338130A1 (priority 2009, published 2013).
“And” between values parts separate entries of the source, which are not always exact repeats. Identical values can stand only once. Like-named read-outs stand apart in the source and are kept apart here.

Key:
[1] = tested on: ATCC strain 43300 Staphylococcus aureus; experiment: MRSA survival in MSM, DMSO and oxacillin, 48 hours (Example 2)
Experimental: All concentrations were plated out to the 10^−7 dilutions to ascertain cfu/ml.
Material was calculated on a 10 ml volume. […] Sterile DMSO was added to appropriate tubes. Sterile oxacillin was added to appropriate tubes at 300 microliters from a 30 mg/10 ml concentration giving it a final concentration of 6 μg/ml. Control conditions were Lactose Broth inoculated with ATCC strain 43300 Staphylococcus aureus with and without 6 μg/ml oxacillin, as well as uninoculated negative controls to show no signs of contamination.
Appropriate tubes were inoculated at a dilution of ATCC strain 43300 Staphylococcus aureus giving a final concentration of colony forming units of 3.15×10^7/ml (Log=7.49). The tubes were incubated at 25° C. and mixed periodically. Plating was done at 48 hours. […] They were serial diluted down to 10^−7 with 1 ml placed in a sterile petri dish at each dilution point. Then 20 mls of TSA was added to each dilution and swirled and allowed to solidify. All dilutions were placed in a 35° C. incubator for 24 hours. Plates were counted and colony counts changed into log format. A positive and negative control was ascertained.

[2] = tested on: ATCC strain 43300 Staphylococcus aureus; settings: for survival (cfu/ml): triplicate platings
Experimental: Additional antibiotic was added every 24 hours. The growth periods tested were 24 (FIG. 5), 48, 72, 96 and 120 hours.
USP<51> Antimicrobial Effectiveness protocol was used as the template experimental paradigm. […] All concentrations were plated out to the 10^−7 dilutions to ascertain cfu/ml. […] Additional antibiotic was added at the initial concentration every 24 hours.
ATCC strain 43300 Staphylococcus aureus was streaked out for isolations. An isolated colony was chosen, streaked again and incubated. Isolate was chosen and then diluted to a McFarland standard of one. The estimated value was then taken to inoculate tubes containing growth media and 12, 30 or 60 μg/ml methicillin with approximately 10^5 cfu/ml. These tubes were incubated and plated for counting cfu.
Material was calculated on a 10 ml volume. Sterile methicillin was added to each experimental condition to a final concentration of 12, 30 or 60 μg/ml antibiotic. Lactose Broth positive controls both with and without the 12 μg/ml, 30 μg/ml, 60 μg/ml antibiotic were inoculated with MRSA. […] Tubes were set up in singlet, but plated in triplicate, as described below.
All tubes were then inoculated with a dilution of the selected ATCC strain 43300 Staphylococcus aureus clone giving a final level of colony forming units of 1.49×10^5/ml (log=5.17). The tubes were incubated at 25° C. and mixed periodically. Antibiotic was re-inoculated every 24 hours at the initial concentration to maintain pressure on the organism. Plating was done at 24, 48, 72, and 120 hours. Each condition was plated by diluting 1 ml of growth material into 9 ml of MLB diluent broth. […] This mixture was serial diluted down to 10^−7 with 1 ml placed in triplicate in a sterile petri dish at each dilution point. 20 mls of TSA was added to each dilution, swirled and allowed to solidify. All dilutions were placed in a 35° C. incubator for 24 to 72 hours. Bacterial colonies on each plate were counted and the average taken then changed into log format. […] Graphs were recorded as log of 5.2 for TNTC to show comparison among the other data points.
The tubes were spun down at 5000 rpm for 10 minutes. The supernatant was then decanted into 90 mls of Mueller-Hinton broth with 6 μg/ml methicillin. This is for enrichment and the recovery of any MRSA cells that may be present wether healthy or stressed. The pellet had 10 mls Mueller-Hinton broth with 6 μg/ml methicillin added to it to recover any cells that may be present. Both vessels were incubated at 35° C. for 48 hours and plated each 24 hours. Each vessel was plated at 10 dilutions to obtain a 1 cfu detection limit. Since all vessels were at a 1/10 dilution in the enrichment solution plating each vessel in this manner gave us a detection limit of 1 cfu/ml. […] This time point for graphing purposes will be reported as 0 logs.

SMILES: CS(C)(=O)=O [MSM, Methylsulfonylmethane]
- log reduction in cfu/ml ([1]; MA condition (6 μg/ml oxacillin + MSM)): 2.0 log
- maximum log reduction in cfu/ml ([1]; MA condition, 10-16% MSM): 2.9 log
- log reduction in cfu/ml ([1]; MDA condition (6 μg/ml oxacillin + MSM + 1% DMSO), listed as 9% MSM): 1.6 log
- log reduction in cfu/ml ([1]; MDA condition (6 μg/ml oxacillin + MSM + 1% DMSO), listed as 10-16% MSM): 2.0 log
- survival (cfu/ml) ([2]; 12 μg/ml methicillin (re-added every 24 hours) + MSM (% in label), 24 hours, inoculum 1.49×10^5/ml, listed as 5% MSM): 7.8 × 10^2 cfu/ml and 8.0 × 10^2 cfu/ml and 8.2 × 10^2 cfu/ml
- survival (cfu/ml) ([2]; 12 μg/ml methicillin (re-added every 24 hours) + MSM (% in label), 24 hours, inoculum 1.49×10^5/ml, listed as 6% MSM): 4.0 × 10^2 cfu/ml and 4.4 × 10^2 cfu/ml and 4.5 × 10^2 cfu/ml
- survival (cfu/ml) ([2]; 12 μg/ml methicillin (re-added every 24 hours) + MSM (% in label), 24 hours, inoculum 1.49×10^5/ml, listed as 7% MSM): 4.4 × 10^2 cfu/ml and 5.0 × 10^2 cfu/ml
- survival (cfu/ml) ([2]; 12 μg/ml methicillin (re-added every 24 hours) + MSM (% in label), 24 hours, inoculum 1.49×10^5/ml, listed as 8% MSM): 9.6 × 10^2 cfu/ml and 9.5 × 10^2 cfu/ml and 9.3 × 10^2 cfu/ml
- survival (cfu/ml) ([2]; 12 μg/ml methicillin (re-added every 24 hours) + MSM (% in label), 24 hours, inoculum 1.49×10^5/ml, listed as 9% MSM): 9.0 × 10^2 cfu/ml and 9.4 × 10^2 cfu/ml and 9.2 × 10^2 cfu/ml
- survival (cfu/ml) ([2]; 12 μg/ml methicillin (re-added every 24 hours) + MSM (% in label), 24 hours, inoculum 1.49×10^5/ml, listed as 10% MSM): 1.4 × 10^3 cfu/ml
- survival (cfu/ml) ([2]; 12 μg/ml methicillin (re-added every 24 hours) + MSM (% in label), 24 hours, inoculum 1.49×10^5/ml, listed as 11% MSM): 2.2 × 10^3 cfu/ml and 2.3 × 10^3 cfu/ml
- survival (cfu/ml) ([2]; 12 μg/ml methicillin (re-added every 24 hours) + MSM (% in label), 24 hours, inoculum 1.49×10^5/ml, listed as 12% MSM): 2.9 × 10^3 cfu/ml and 3.0 × 10^3 cfu/ml and 2.8 × 10^3 cfu/ml
- survival (cfu/ml) ([2]; 12 μg/ml methicillin (re-added every 24 hours) + MSM (% in label), 24 hours, inoculum 1.49×10^5/ml, listed as 13% MSM): 3.3 × 10^3 cfu/ml and 3.5 × 10^3 cfu/ml and 3.4 × 10^3 cfu/ml
- survival (cfu/ml) ([2]; 12 μg/ml methicillin (re-added every 24 hours) + MSM (% in label), 24 hours, inoculum 1.49×10^5/ml, listed as 14% MSM): 8.8 × 10^3 cfu/ml and 8.5 × 10^3 cfu/ml and 8.2 × 10^3 cfu/ml
- survival (cfu/ml) ([2]; 12 μg/ml methicillin (re-added every 24 hours) + MSM (% in label), 24 hours, inoculum 1.49×10^5/ml, listed as 15% MSM): 6.4 × 10^3 cfu/ml and 6.6 × 10^3 cfu/ml and 6.5 × 10^3 cfu/ml
- survival (cfu/ml) ([2]; 12 μg/ml methicillin (re-added every 24 hours) + MSM (% in label), 24 hours, inoculum 1.49×10^5/ml, listed as 16% MSM): 1.01 × 10^3 cfu/ml and 1.03 × 10^3 cfu/ml and 1.04 × 10^3 cfu/ml
- log reduction ([2]; 12 μg/ml methicillin, 24 hours): 2.2 log
- log reduction in colony count ([2]; 12 μg/ml methicillin, 48 hours): 4.1 log
- recovery after enrichment in Mueller-Hinton broth ([2]; 12 μg/ml methicillin, 72 hours, detection limit 1 cfu/ml): true total kill
- colony count ([2]; 12 μg/ml methicillin, 96 hours): TNTC
- recovery after enrichment in Mueller-Hinton broth ([2]; 12 μg/ml methicillin, 96 hours, detection limit 1 cfu/ml): true total kill
- colony count ([2]; 12 μg/ml methicillin, 120 hours): TNTC
- average log reduction in colony count ([2]; 12 μg/ml methicillin, all MSM concentrations, 24 hours): 1.5 logs
- survival (cfu/ml) ([2]; 30 μg/ml methicillin + MSM (% in label), 24 hours, listed as 5% MSM): 3.8 × 10^2 cfu/ml and 4.1 × 10^2 cfu/ml and 4.0 × 10^2 cfu/ml
- survival (cfu/ml) ([2]; 30 μg/ml methicillin + MSM (% in label), 24 hours, listed as 6% MSM): 2.2 × 10^2 cfu/ml and 2.5 × 10^2 cfu/ml
- survival (cfu/ml) ([2]; 30 μg/ml methicillin + MSM (% in label), 24 hours, listed as 7% MSM): 3.4 × 10^2 cfu/ml and 3.5 × 10^2 cfu/ml and 3.3 × 10^2 cfu/ml
- survival (cfu/ml) ([2]; 30 μg/ml methicillin + MSM (% in label), 24 hours, listed as 8% MSM): 9.4 × 10^2 cfu/ml and 9.6 × 10^2 cfu/ml
- survival (cfu/ml) ([2]; 30 μg/ml methicillin + MSM (% in label), 24 hours, listed as 9% MSM): 1.1 × 10^3 cfu/ml and 1.3 × 10^3 cfu/ml and 1.2 × 10^3 cfu/ml
- survival (cfu/ml) ([2]; 30 μg/ml methicillin + MSM (% in label), 24 hours, listed as 10% MSM): 1.2 × 10^3 cfu/ml and 1.3 × 10^3 cfu/ml and 1.1 × 10^3 cfu/ml
- survival (cfu/ml) ([2]; 30 μg/ml methicillin + MSM (% in label), 24 hours, listed as 11% MSM): 3.3 × 10^3 cfu/ml and 2.8 × 10^3 cfu/ml and 3.1 × 10^3 cfu/ml
- survival (cfu/ml) ([2]; 30 μg/ml methicillin + MSM (% in label), 24 hours, listed as 12% MSM): 3.3 × 10^3 cfu/ml
- survival (cfu/ml) ([2]; 30 μg/ml methicillin + MSM (% in label), 24 hours, listed as 13% MSM): 6.5 × 10^3 cfu/ml and 6.4 × 10^3 cfu/ml
- survival (cfu/ml) ([2]; 30 μg/ml methicillin + MSM (% in label), 24 hours, listed as 14% MSM): 6.3 × 10^3 cfu/ml and 6.7 × 10^3 cfu/ml and 6.9 × 10^3 cfu/ml
- survival (cfu/ml) ([2]; 30 μg/ml methicillin + MSM (% in label), 24 hours, listed as 15% MSM): 7.8 × 10^3 cfu/ml and 7.6 × 10^3 cfu/ml and 8.0 × 10^3 cfu/ml
- survival (cfu/ml) ([2]; 30 μg/ml methicillin + MSM (% in label), 24 hours, listed as 16% MSM): 9.6 × 10^3 cfu/ml and 9.8 × 10^3 cfu/ml and 9.7 × 10^3 cfu/ml
- log reduction in colony count ([2]; 30 μg/ml methicillin, 24 hours): 2.8 log
- recovery after enrichment in Mueller-Hinton broth ([2]; 30 μg/ml methicillin, 120 hours, detection limit 1 cfu): true total kill
- average log reduction ([2]; 30 μg/ml methicillin, lower end of MSM concentrations, 24 hours): 3 log
- survival (cfu/ml) ([2]; 60 μg/ml methicillin + MSM (% in label), 24 hours, listed as 5% MSM): 8.3 × 10^2 cfu/ml and 8.1 × 10^2 cfu/ml
- survival (cfu/ml) ([2]; 60 μg/ml methicillin + MSM (% in label), 24 hours, listed as 6% MSM): 4.2 × 10^2 cfu/ml and 4.8 × 10^2 cfu/ml
- survival (cfu/ml) ([2]; 60 μg/ml methicillin + MSM (% in label), 24 hours, listed as 7% MSM): 6.1 × 10^2 cfu/ml and 6.3 × 10^2 cfu/ml and 6.2 × 10^2 cfu/ml
- survival (cfu/ml) ([2]; 60 μg/ml methicillin + MSM (% in label), 24 hours, listed as 8% MSM): 9.4 × 10^2 cfu/ml and 9.8 × 10^2 cfu/ml and 9.7 × 10^2 cfu/ml
- survival (cfu/ml) ([2]; 60 μg/ml methicillin + MSM (% in label), 24 hours, listed as 9% MSM): 2.0 × 10^3 cfu/ml and 1.6 × 10^3 cfu/ml and 1.8 × 10^3 cfu/ml
- survival (cfu/ml) ([2]; 60 μg/ml methicillin + MSM (% in label), 24 hours, listed as 10% MSM): 2.2 × 10^3 cfu/ml and 2.1 × 10^3 cfu/ml and 2.0 × 10^3 cfu/ml
- survival (cfu/ml) ([2]; 60 μg/ml methicillin + MSM (% in label), 24 hours, listed as 11% MSM): 3.5 × 10^3 cfu/ml and 3.8 × 10^3 cfu/ml and 3.9 × 10^3 cfu/ml
- survival (cfu/ml) ([2]; 60 μg/ml methicillin + MSM (% in label), 24 hours, listed as 12% MSM): 4.5 × 10^3 cfu/ml and 4.1 × 10^3 cfu/ml and 4.7 × 10^3 cfu/ml
- survival (cfu/ml) ([2]; 60 μg/ml methicillin + MSM (% in label), 24 hours, listed as 13% MSM): 7.0 × 10^3 cfu/ml and 6.8 × 10^3 cfu/ml and 6.5 × 10^3 cfu/ml
- survival (cfu/ml) ([2]; 60 μg/ml methicillin + MSM (% in label), 24 hours, listed as 14% MSM): 8.3 × 10^3 cfu/ml and 8.8 × 10^3 cfu/ml and 8.5 × 10^3 cfu/ml
- survival (cfu/ml) ([2]; 60 μg/ml methicillin + MSM (% in label), 24 hours, listed as 15% MSM): 8.3 × 10^3 cfu/ml and 8.5 × 10^3 cfu/ml and 8.4 × 10^3 cfu/ml
- survival (cfu/ml) ([2]; 60 μg/ml methicillin + MSM (% in label), 24 hours, listed as 16% MSM): 8.4 × 10^3 cfu/ml and 8.5 × 10^3 cfu/ml
- log reduction in colony count ([2]; 60 μg/ml methicillin, 48 hours): 4.1 log
- recovery after enrichment in Mueller-Hinton broth ([2]; 60 μg/ml methicillin, 72 hours, detection limit 1 cfu/ml): true total kill
- colony count ([2]; 60 μg/ml methicillin, 96 hours): TNTC
- recovery after enrichment in Mueller-Hinton broth ([2]; 60 μg/ml methicillin, 120 hours, detection limit 1 cfu): true total kill
- growth ([2]; positive 5%, 10%, and 16% MSM controls, no antibiotic, 24 hours): signs of turbid growth, was TNTC for all dilutions plated
